Experimental data taken from the supplement of paper PMC10307832.

Experiments:
Crenolanib = compound: CC1(COc2ccc3c(c2)ncn3-c2ccc3cccc(N4CCC(N)CC4)c3n2)COC1 [Crenolanib]; experiment: relative viability (nuclei count vs DMSO), 5 days (fraction); higher = more cells survive
How it was run: (§1)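 Acceptance criteria were a control CV below 25% and at least one doubling per plate. Lung cancer cell lines in 1536-well plates got five library-drug doses (not always all listed) √10 apart by pinning and were left 5 days with no medium change. Viability divides treated-well nuclei by vehicle-well nuclei and is the median across plates. Nuclei were counted by MetaXpress from 4× Hoechst images.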

Tivantinib = compound: O=C1NC(=O)[C@@H](c2cn3c4c(cccc24)CCC3)[C@@H]1c1c[nH]c2ccccc12 [Tivantinib]; experiment: as above
How it was run: as §1

Cell Line | relative viability (Crenolanib; 0.01 µM) | relative viability (Crenolanib; 0.03162 µM) | relative viability (Crenolanib; 0.1 µM) | relative viability (Crenolanib; 0.3162 µM) | relative viability (Crenolanib; 1 µM) | relative viability (Tivantinib; 0.01 µM) | relative viability (Tivantinib; 0.03162 µM) | relative viability (Tivantinib; 0.1 µM) | relative viability (Tivantinib; 0.3162 µM)
RERF-LC-KJ | 1.04 | 1.01 | 1 | 1.06 | 1.02 | 1.01 | 1.03 | 0.996 | 0.763
SK-LU-1 | 1.03 | 1.04 | 0.755 | 1.08 | 1.04 | 1.08 | 1.08 | 0.987 | 1.01
SK-MES-1 | 1.05 | 1.01 | 0.973 | 1.06 | 0.936 | 1.06 | 0.912 | 0.91 | 0.915
SW 900 | 0.813 | 0.851 | 1.06 | 0.86 | 0.645 | 1.05 | 0.709 | 0.928 | 0.878
SW 1573 | 1.01 | 1.01 | 0.955 | 1.01 | 0.986 | 1.02 | 0.866 | 0.981 | 0.958
